Results: patent US20250099478A1, “PLASMA KALLIKREIN INHIBITORS” (Merck Sharp & Dohme LLC, priority 2022, published 2025)

How the values were obtained:
Human plasma kallikrein = biological target: T1, Human plasma kallikrein (Homo sapiens, UniProt P03952); experiment: Plasma Kallikrein Assay; format: biochemical; details: purified Human plasma kallikrein 0.5 nM, substrate Acetyl-K-P-R-AFC; read-out: PKal IC50
T1 construct: yields a heavy chain (371 amino acids) and a light chain (248 amino acids); purchased Enzyme Research Laboratories
Summary of the method: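 Purified human plasma kallikrein (0.5 nM) hydrolysing fluorogenic Acetyl-K-P-R-AFC ([…]) in 50 mM HEPES pH 7.4, 150 mM NaCl, 5 mM CaCl2, 0.1% PEG 8000, at rt or 37 °C after enzyme–inhibitor equilibration. IC50 from four-parameter logistic fit; Ki via Cheng–Prusoff.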

human factor XIa = biological target: T2, human factor XIa (Homo sapiens, UniProt P03951); experiment: Factor XIa Assay; format: biochemical; details: human factor XIa 0.04 nM, substrate GPR-AFC, 25° C.
T2 construct: with human (0.04 nM) factor XIa
Experimental: The effectiveness of a compound of the present invention as an inhibitor of Coagulation factor XIa can be determined using a relevant purified serine protease, and an appropriate synthetic substrate. The rate of hydrolysis of the chromogenic or fluorogenic substrate by the relevant serine protease was measured both in the absence and presence of compounds of the present invention. Assays were conducted at rt or at 37° C. […] A decrease in the rate of fluorescence change in the presence of inhibitor is indicative of enzyme inhibition. Such methods are known to one skilled in the art. The results of this assay are expressed as the half-maximal inhibitory concentrations (IC50), or the inhibitory constant, Ki.
Compounds were pre-incubated for 30 min at 25° C. with human (0.04 nM) factor XIa in 50 mM HEPES buffer with 150 mM sodium chloride, 5 mM calcium chloride, 0.1% PEG 8000, pH 7.4. factor XIa enzymatic activity was determined by addition of the substrate glycine-proline-arginine-7-amido-4-trifluoromethylcoumarin (GPR-AFC) and measurement of the fluorescence at 400/505 nm after a 60 min incubation at 25° C. The % inhibition for each data point was calculated from the data and analyzed using the log (inhibitor) vs. response four parameters equation to determine the half-maximal inhibitory concentrations (IC50). The IC50 were converted to equilibrium inhibitory constants (Ki) using the Cheng-Prusoff equation.

T1 sequence (P03952 391-638 limits assumed): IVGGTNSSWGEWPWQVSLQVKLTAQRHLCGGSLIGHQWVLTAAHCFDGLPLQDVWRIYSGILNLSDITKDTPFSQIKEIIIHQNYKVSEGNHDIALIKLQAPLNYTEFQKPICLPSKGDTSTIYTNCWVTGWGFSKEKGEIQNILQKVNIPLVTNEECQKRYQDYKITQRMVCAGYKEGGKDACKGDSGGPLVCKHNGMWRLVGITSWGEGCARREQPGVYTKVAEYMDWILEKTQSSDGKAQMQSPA
T1 sequence (P03952 20-390 partner limits assumed): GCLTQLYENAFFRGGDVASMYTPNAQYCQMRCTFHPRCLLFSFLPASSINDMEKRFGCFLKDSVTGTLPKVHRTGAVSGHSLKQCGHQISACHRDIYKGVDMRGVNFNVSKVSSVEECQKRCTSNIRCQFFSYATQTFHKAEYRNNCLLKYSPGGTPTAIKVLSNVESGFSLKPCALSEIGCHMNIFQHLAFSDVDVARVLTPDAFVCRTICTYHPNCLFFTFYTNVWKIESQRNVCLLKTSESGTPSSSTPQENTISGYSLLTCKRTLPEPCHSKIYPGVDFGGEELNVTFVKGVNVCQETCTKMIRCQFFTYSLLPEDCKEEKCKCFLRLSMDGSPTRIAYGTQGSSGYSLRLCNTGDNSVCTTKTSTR
T2 sequence (P03951 388-625 limits assumed): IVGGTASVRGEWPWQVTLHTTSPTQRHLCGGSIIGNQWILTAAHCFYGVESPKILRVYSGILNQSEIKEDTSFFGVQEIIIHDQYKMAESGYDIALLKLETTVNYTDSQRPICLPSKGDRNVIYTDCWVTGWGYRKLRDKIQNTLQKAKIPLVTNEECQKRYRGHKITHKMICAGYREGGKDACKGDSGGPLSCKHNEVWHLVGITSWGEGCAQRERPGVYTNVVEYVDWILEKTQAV
T2 sequence (P03951 19-387 partner limits assumed): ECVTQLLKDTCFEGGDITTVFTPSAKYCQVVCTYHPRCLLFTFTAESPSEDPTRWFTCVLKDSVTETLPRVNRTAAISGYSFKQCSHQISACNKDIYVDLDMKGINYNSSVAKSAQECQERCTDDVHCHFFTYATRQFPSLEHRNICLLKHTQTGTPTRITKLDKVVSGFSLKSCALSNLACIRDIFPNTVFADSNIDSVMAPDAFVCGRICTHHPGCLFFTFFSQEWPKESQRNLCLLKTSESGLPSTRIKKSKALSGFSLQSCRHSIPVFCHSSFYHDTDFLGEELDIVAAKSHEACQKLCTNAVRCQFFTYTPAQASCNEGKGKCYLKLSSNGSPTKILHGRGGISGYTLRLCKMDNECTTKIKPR

SMILES | IC50 (Human plasma kallikrein) [µM] | IC50 (human factor XIa) [µM]
CCC(F)(c1ccc(F)cc1)c1n[nH]c(C(=O)N2CCC[C@@]3(C2)OC(=O)Nc2ccc(Cl)c(F)c23)n1 (single isomer, unassigned) [Example 129, (3′R)-6-Chloro-5-fluoro-1′-(3-(1-fluoro-1-(4-fluorophenyl)propyl)-1H-1,2,4-triazole-5-carbonyl)spiro[benzo[d][1.3]oxazine-4,3′-piperidin]-2(1H)-one] | 0.0089 | 4.3
O=C1Nc2ccc(Cl)c(F)c2[C@@]2(CCCN(C(=O)c3nnc(C(CC(F)(F)F)c4cccc(Cl)c4)[nH]3)C2)O1 (single isomer, unassigned) [Example 101] | 0.0104 | 4.01
O=C1Nc2ccc(Cl)c(F)c2[C@@]2(CCCN(C(=O)c3cnn([C@](CO)(CC4CC4)c4ccc(F)cc4)c3)C2)O1 [Example 34, (R)-6-Chloro-1′-(1-((R)-1-cyclopropyl-2-(4-fluorophenyl)-3-hydroxypropan-2-yl)-1H-pyrazole-4-carbonyl)-5-fluorospiro[benzo[d][1,3]oxazine-4,3′-piperidin]-2(1H)-one] | 0.0131 | 0.27
O=C1Nc2ccc(Cl)c(F)c2[C@@]2(CC(C3CC3)CN(C(=O)c3cnn(Cc4ccccc4)c3)C2)O1 (stereo partly drawn) [Example 22, (4R)-1′-(1-Benzyl-1H-pyrazole-4-carbonyl)-6-chloro-5′-cyclopropyl-5-fluorospiro[benzo[d][1,3]oxazine-4,3′-piperidin]-2(1H)-one] | 0.0079 | 1.37
CCC(c1c(C)noc1C)n1cc(C(=O)N2CCC[C@@]3(C2)OC(=O)Nc2ccc(Cl)c(F)c23)cn1 (single isomer, unassigned) [Example 43] | 0.0271 | 4.67
CCC(c1ccnc(C(F)(F)F)c1)c1c[nH]c(C(=O)N2CCC[C@@]3(C2)OC(=O)Nc2ccc(Cl)c(F)c23)n1 (single isomer, unassigned) [Example 74, (R)-6-Chloro-5-fluoro-1′-(4-((S or R)-1-(2-(trifluoromethyl)pyridin-4-yl)propyl)-1H-imidazole-2-carbonyl)spiro[benzo[d][1,3]oxazine-4,3′-piperidin]-2(1H)-one] | 0.0108 | 2.75
CCC(c1ccc(F)cc1)c1c[nH]c(C(=O)N2CCC[C@@]3(C2)OC(=O)Nc2ccc(Cl)c(F)c23)n1 (single isomer, unassigned) [Example 72, (R)-6-Chloro-5-fluoro-1′-(4-((S or R)-1-(4-fluorophenyl)propyl)-1H-imidazole-2-carbonyl)spiro[benzo[d][1,3]oxazine-4,3′-piperidin]-2(1H)-one] | 0.0093 | 1.43
CC1(C)CN(C(=O)c2nnc(C(C)(C)c3ccccc3)[nH]2)C[C@]2(C1)OC(=O)Nc1ccc(Cl)c(F)c12 [Example 95, (R)-6-Chloro-5-fluoro-5′,5′-dimethyl-1′-(5-(2-phenylpropan-2-yl)-4H-1,2,4-triazole-3-carbonyl)spiro[benzo[d][1,3]oxazine-4,3′-piperidin]-2(1H)-one] | 0.0214 | 3.01
CCC(c1ccc2[nH]ncc2c1)n1cc(C(=O)N2CCC[C@@]3(C2)OC(=O)Nc2ccc(Cl)c(F)c23)cn1 (single isomer, unassigned) [Example 40] | 0.0071 | 1
CCC(c1ccc(F)cc1)c1c[nH]c(C(=O)N2CC[C@@]3(C2)OC(=O)Nc2ccc(Cl)c(F)c23)n1 (single isomer, unassigned) [Example 66, (4R)-6-Chloro-5-fluoro-1′-(4-((S or R)-1-(4-fluorophenyl)propyl)-1H-imidazole-2-carbonyl)spiro[benzo[d][1,3]oxazine-4,3′-pyrrolidin]-2(1H)-one] | 0.0325 | 1.36
CC(C)(c1ccccc1)c1nnc(C(=O)N2CCC[C@@]3(C2)OC(=O)Nc2ccc(Cl)c(F)c23)[nH]1 [Example 93, (R)-6-Chloro-5-fluoro-1′-(5-(2-phenylpropan-2-yl)-4H-1,2,4-triazole-3-carbonyl)spiro[benzo[d][1,3]oxazine-4,3′-piperidin]-2(1H)-one] | 0.0299 | 3.16
O=C1Nc2ccc(Cl)c(F)c2[C@@]2(CCCN(C(=O)c3cnc(C(O)c4ccc(F)cc4)[nH]3)C2)O1 (single isomer, unassigned) [Example 78] | 0.0137 | 3.85
CCCCC(O)(c1ccc(F)cc1)c1ncc(C(=O)N2CCC[C@@]3(C2)OC(=O)Nc2ccc(Cl)c(F)c23)[nH]1 (stereo partly drawn) [Example 81, (3′R)-6-Chloro-5-fluoro-1′-(2-(1-(4-fluorophenyl)-1-hydroxypentyl)-1H-imidazole-5-carbonyl)spiro[benzo[d][1.3]oxazine-4,3′-piperidin]-2(1H)-one] | 0.0087 | 2.3
CCC(c1ccc(F)cc1)c1nnc(C(=O)N2CC(C)(C)C[C@@]3(C2)OC(=O)Nc2ccc(Cl)c(F)c23)[nH]1 (single isomer, unassigned) [Example 103] | 0.007 | 1.95
CO[C@H](C)[C@H](c1ccccc1)n1cc(C(=O)N2CCC[C@@]3(C2)OC(=O)Nc2ccc(Cl)c(F)c23)cn1 [Example 15, (R)-6-Chloro-5-fluoro-1′-(1-((1S,2R)-2-methoxy-1-phenylpropyl)-1H-pyrazole-4-carbonyl)spiro[benzo[d][1,3]oxazine-4,3′-piperidin]-2(1H)-one] | 0.0381 | 2.71
O=C1Nc2ccc(Cl)c(F)c2[C@@]2(CCCN(C(=O)c3nnc(C4(c5ccc(F)cc5)CCC4)[nH]3)C2)O1 [Example 88, (R)-6-Chloro-5-fluoro-1′-(5-(1-(4-fluorophenyl)cyclobutyl)-4H-1,2,4-triazole-3-carbonyl)spiro[benzo[d][1,3]oxazine-4,3′-piperidin]-2(1H)-one] | 0.0137 | 4.44
O=C1Nc2ccc(Cl)c(F)c2[C@@]2(CCCN(C(=O)c3cnn([C@@H](CC4CC4)c4ccccc4)c3)C2)O1 (single isomer, unassigned) [Example 1] | 0.0069 | 1.57

The next molecules have a lower IC50 (Human plasma kallikrein) than those just listed; values first:

IC50 (Human plasma kallikrein) [µM] | IC50 (human factor XIa) [µM] | SMILES
0.0057 | 0.322 | COC1(CC(c2ccccc2)c2c[nH]c(C(=O)N3CCC[C@@]4(C3)OC(=O)Nc3ccc(Cl)c(F)c34)n2)CC1 (single isomer, unassigned) [Example 75, (R)-6-Chloro-5-fluoro-1′-(4-((R or S)-2-(1-methoxycyclopropyl)-1-phenylethyl)-1H-imidazole-2-carbonyl)spiro[benzo[d][1,3]oxazine-4,3′-piperidin]-2(1H)-one]
0.0046 | 1.79 | CCC(c1ccc2c(c1)OCO2)n1cc(C(=O)N2CCC[C@@]3(C2)OC(=O)Nc2ccc(Cl)c(F)c23)cn1 (single isomer, unassigned) [Example 32]
0.0042 | 4.76 | CCC(c1ccc2c(c1)OCO2)n1cc(C(=O)N2CCC[C@@]3(C2)OC(=O)Nc2ccc(Cl)c(F)c23)cn1 (single isomer, unassigned) [Example 33]
0.0035 | 5.08 | CCC(c1ccc(F)c(Cl)c1)c1nnc(C(=O)N2CCC[C@@]3(C2)OC(=O)Nc2ccc(Cl)c(F)c23)[nH]1 (single isomer, unassigned) [Example 96]
0.0028 | 2.49 | CCC(c1ccc2cnccc2c1)n1cc(C(=O)N2CCC[C@@]3(C2)OC(=O)Nc2ccc(Cl)c(F)c23)cn1 (single isomer, unassigned) [Example 36]
0.0013 | 0.646 | CC[C@@H](c1cc(C)c2nc[nH]c2c1)c1n[nH]c(C(=O)N2CCC[C@@]3(C2)OC(=O)Nc2ccc(Cl)c(F)c23)n1 [Example 109, (R)-6-Chloro-5-fluoro-1′-(3-((S)-1-(4-methyl-1H-benzo[d]imidazol-6-yl)propyl)-TH-1,2,4-triazole-5-carbonyl)spiro[benzo[d][1,3]oxazine-4,3′-piperidin]-2(1H)-one]
0.0013 | 0.362 | O=C1Nc2ccc(Cl)c(F)c2[C@@]2(CCCN(C(=O)c3nnc(C(CC(F)(F)F)c4ccccc4)[nH]3)C2)O1 (single isomer, unassigned) [Example 98]
0.001 | 1.22 | CC[C@H](c1cc(C)c2nc[nH]c2c1)c1n[nH]c(C(=O)N2CCC[C@@]3(C2)OC(=O)Nc2ccc(Cl)c(F)c23)n1 [Example 110, (R)-6-Chloro-5-fluoro-1′-(3-((R)-1-(4-methyl-1H-benzo[d]imidazol-6-yl)propyl)-1H-1,2,4-triazole-5-carbonyl)spiro[benzo[d][1.3]oxazine-4,3′-piperidin]-2(1H)-one]
0.0008 | 1.42 | CCC(c1cc(C)c2nc[nH]c2c1)n1cc(C(=O)N2CCC[C@@]3(C2)OC(=O)Nc2ccc(Cl)c(F)c23)cn1 (single isomer, unassigned) [Example 45, (4R)-6-Chloro-5-fluoro-1′-(1-((R or S)-1-(4-methyl-1H-benzo[d]imidazol-6-yl)propyl)-1H-pyrazole-4-carbonyl)spiro[benzo[d][1,3]oxazine-4,3′-piperidin]-2(1H)-one]
